Laboratory results reported in patent publication US4000261A, “5-Epi-4,6-di-O-(aminoglycosyl)-2-deoxystreptamines, methods for their manufacture and intermediates useful therein, methods for their use as antibacterial agents and compositions useful therefor” (priority 1975, dated 1976).
Converted amounts (≈) assume the structure as drawn. Like-named read-outs stand apart in the source and are kept apart here.

Legend:
Format in all cases: cell-based
[1] = tested on: gram-positive and gram-negative bacteria; assay: antibacterial spectrum and relative activity in vitro; conditions: for antibacterial spectrum in vitro: compared with gentamicin C1, C1a and C2
[2] = tested on: gram positive bacteria (e.g. Staphylococcus aureus) and gram negative bacteria (e.g. Escherichia coli and Pseudomonas aeruginosa); assay: antibacterial activity determined by standard dilution tests; conditions: including bacteria resistant to the parent compounds
[3] = tested on: Staphylococcus aureus; assay: in vitro minimal inhibitory concentration (MIC), standard tube dilution method; conditions: Mueller-Hinton broth
From the text: (§1) In Table 1, set forth below is shown the in vitro minimal inhibitory concentration (MIC) of gentamicin C2a against representative gram-positive and gram-negative bacteria. The results are derived using the standard tube dilution method in Mueller-Hinton broth.
(§2) In Table 2, set forth below is shown the in vitro minimal inhibitory concentration (MIC) of gentamicin C2b against representative gram-positive and gram-negative bacteria. The results are derived using the standard tube dilution method in Mueller-Hinton broth.

[4] = tested on: Pseudomonas aeruginosa; assay: as above
From the text: as §1, §2

[5] = tested on: Bacillus subtilis 663; assay: as above; conditions: strain 663, Mueller-Hinton broth
From the text: as §1, §2

[6] = tested on: Escherichia coli; assay: as above
From the text: as §1, §2

[7] = tested on: Salmonella typhi. B.; assay: as above; conditions: Salmonella enterica
From the text: as §1, §2

[8] = tested on: Klebsiella pneumoniae; assay: as above
From the text: as §1, §2

[9] = strain 20, Mueller-Hinton broth
[10] = strain 762, Mueller-Hinton broth
[11] = strain 3223, Mueller-Hinton broth
[12] = strain St 138, gentamicin resistant, Mueller-Hinton broth
[13] = strain Travers, gentamicin resistant, Mueller-Hinton broth
[14] = ATCC10536, strain ATCC 10536, Mueller-Hinton broth
[15] = strain JR66, gentamicin resistant, Mueller-Hinton broth
[16] = strain LA 290/R55, gentamicin resistant, Mueller-Hinton broth
[17] = strain 17, Mueller-Hinton broth, read-out: MIC

Structure (SMILES) | antibacterial spectrum in vitro [1] | MIC ([3]; strain 59N) [mg/L] | MIC ([3]; strain Ziegler) [mg/L] | MIC [4, 9] [mg/L] | MIC [4, 10] [mg/L] | MIC [4, 11] [mg/L] | MIC [4, 12] [mg/L] | MIC [4, 13] [mg/L] | MIC [5] [mg/L] | MIC [6, 14] [mg/L] | MIC [6, 15] [mg/L] | MIC [6, 16] [mg/L] | MIC [7] [mg/L] | MIC [8, 17] [mg/L] | other results
CCN[C@@H]1C[C@H](N)[C@@H](O[C@H]2OC(CN)=CC[C@H]2N)[C@@H](O)[C@H]1O[C@H]1OC[C@](C)(O)[C@H](NC)[C@H]1O [1-N-ethyl-5-episisomicin] |  |  |  |  |  |  |  |  |  |  |  |  |  |  | antibacterial activity / spectrum ([1]; general statement, some compared with parent antibiotics): enhanced antibacterial activity
CN[C@@H]1[C@@H](O)[C@@H](O[C@@H]2[C@H](O)[C@H](O[C@H]3OC(CN)=CC[C@H]3N)[C@@H](N)C[C@H]2N)OC[C@@H]1O [5-epi-Antibiotic 66-40D] |  |  |  |  |  |  |  |  |  |  |  |  |  |  | antibacterial activity in standard dilution tests [2]: active against gram positive bacteria (e.g. Staphylococcus aureus) and gram negative bacteria (e.g. Escherichia coli and Pseudomonas aeruginosa)
CN[C@@H]1[C@@H](O)[C@@H](O[C@@H]2[C@@H](O)[C@H](O[C@H]3O[C@H]([C@H](C)N)CC[C@H]3N)[C@@H](N)C[C@H]2N)OC[C@]1(C)O [gentamicin C2a] | substantially the same antibacterial spectrum in vitro as do gentamicin C1, C1a and C2 | 0.3 (≈ 0.647 µM) | 0.3 (≈ 0.647 µM) | 3 (≈ 6.47 µM) | 0.8 (≈ 1.73 µM) | 0.3 (≈ 0.647 µM) | > 25 | > 25 | 0.1 (≈ 0.216 µM) | 0.3 (≈ 0.647 µM) | 7.5 (≈ 16.2 µM) | 17.5 (≈ 37.8 µM) | 0.3 (≈ 0.647 µM) | 0.8 (≈ 1.73 µM) | activity relative to the gentamicin C complex ([1]; as the free base, % of the activity of the gentamicin C complex): about 74%; MIC ([3]; Staphylococcus aureus, strain 6538P, read-out: MIC): 0.3 mg/L (≈ 0.647 µM); MIC [8]: 17.5 mg/L (≈ 37.8 µM)
CNC[C@@H]1CC[C@@H](N)[C@@H](O[C@H]2[C@H](O)[C@@H](O[C@H]3OC[C@](C)(O)[C@H](NC)[C@H]3O)[C@H](N)C[C@@H]2N)O1 [gentamicin C2b] | substantially the same antibacterial spectrum in vitro as do gentamicin C1, C1a and C2 | 0.075 (≈ 0.162 µM) | 0.075 (≈ 0.162 µM) | 0.3 (≈ 0.647 µM) | 0.3 (≈ 0.647 µM) | 0.075 (≈ 0.162 µM) | 17.5 (≈ 37.8 µM) | > 25 | < 0.05 | 0.075 (≈ 0.162 µM) | 7.5 (≈ 16.2 µM) | > 25 | 0.3 (≈ 0.647 µM) | 0.075 (≈ 0.162 µM) | MIC ([3]; Staphylococcus aureus, strain wood, read-out: MIC): 0.075 mg/L (≈ 0.162 µM); MIC ([8]; strain 3694, gentamicin resistant, Mueller-Hinton broth, read-out: MIC): 17.5 mg/L (≈ 37.8 µM)
